Assays:
[1] = collision cross section (TIMS, N2 drift gas) of the primary ion; higher = larger gas-phase ion size
Method: (§1)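 Reference mixture of environmental contaminants analysed by RP-LC (BEH C18, 50 °C; ESI+ with water/MeOH plus formic acid and ammonium formate, ESI- with ammonium bicarbonate) coupled to a timsTOF Pro 2 with trapped ion mobility in nitrogen (ramp/accumulation 100 ms). CCS was calibrated with Agilent tune mix (CCS compendium) and averaged over five injections at 0.5-500 ng/mL. The table reports the lowest-CCS (putative monomer) peak; retention times are on the same gradient.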

[2] = reversed-phase LC retention time (C18, 15 min MeOH gradient); higher = more hydrophobic / later elution
Method: as §1

[3] = ionization mode: ESI+, ion species: [M+H]+
[4] = ionization mode: ESI-, ion species: [M-H]-
[5] = ionization mode: ESI+, ion species: [M]+

With `Nc1ccc(Oc2ccc(N)cc2)cc1` [4,4'-Oxydianiline] the collision cross section [1, 3] was 159.82 Å² and the “reversed-phase LC retention time” value [2, 3] was 4.06 min.

In the case of `CCNc1ccc2c(C)cc(=O)oc2c1` [7-(Ethylamino)-4-methylcoumarin], the collision cross section [1, 3] is reported as 142.36 Å² and the “reversed-phase LC retention time” value [2, 3] is reported as 12.2 min.

In the case of `Cc1nccn1CC1CCc2c(c3ccccc3n2C)C1=O` (stereo not given) [Ondansetron], the collision cross section [1, 3] is reported as 173.57 Å² and the “reversed-phase LC retention time” value [2, 3] is reported as 9.49 min.

For `CCc1cccc(C)c1N(C(=O)CS(=O)(=O)O)C(C)COC` (stereo not given) [Metolachlor ESA], the collision cross section [1, 3] was 170.74 Å², the collision cross section [1, 4] was 173.48 Å² and the “reversed-phase LC retention time” value [2, 3] was 12.1 min. For the same compound, the “reversed-phase LC retention time” value [2, 4] was 12 min.

In the case of `CC(=O)O[C@]1(C(C)=O)CC[C@H]2[C@@H]3C[C@H](C)C4=CC(=O)CC[C@]4(C)[C@H]3CC[C@@]21C` [Medroxyprogesteroneacetate], the collision cross section [1, 3] is reported as 199.59 Å² and the “reversed-phase LC retention time” value [2, 3] is reported as 15.4 min.

With `C[C@]12CC[C@@H]3c4ccc(O)cc4CC[C@H]3[C@@H]1CC[C@@H]2O` [17-beta-Estradiol] the collision cross section [1, 4] was 173.91 Å² and the “reversed-phase LC retention time” value [2, 4] was 14.5 min.

For `CCC1=C(C)CN(C(=O)NCCc2ccc(S(=O)(=O)NC(=O)NC3CCC(C)CC3)cc2)C1=O` (stereo not given) [Glimepiride], the collision cross section [1, 3] was 216.66 Å², the collision cross section [1, 4] was 215.02 Å² and the “reversed-phase LC retention time” value [2, 3] was 15.3 min. For the same compound, the “reversed-phase LC retention time” value [2, 4] was 14.3 min.

In the case of `CCCCC(CC)COC(=O)c1ccccc1C(=O)OCC(CC)CCCC` (stereo not given) [Bis(2-ethylhexyl)phthalate], the collision cross section [1, 3] is reported as 212.9 Å² and the “reversed-phase LC retention time” value [2, 3] is reported as 19.1 min.

In the case of `NC(N)=NC(=O)c1nc(Cl)c(N)nc1N` [Amiloride], the collision cross section [1, 3] is reported as 149.53 Å² and the “reversed-phase LC retention time” value [2, 3] is reported as 6.27 min.

With `Cc1cccc(C)c1N(Cn1cccn1)C(=O)CCl` [Metazachlor] the collision cross section [1, 3] was 159.2 Å² and the “reversed-phase LC retention time” value [2, 3] was 12.9 min.

In the case of `C#C[C@]1(O)CC[C@H]2[C@@H]3CCc4cc(O)ccc4[C@H]3CC[C@@]21C` [17-alpha-Ethinylestradiol], the collision cross section [1, 4] is reported as 182.24 Å² and the “reversed-phase LC retention time” value [2, 4] is reported as 14.3 min.

With `NC(=O)c1c(Cl)c(Cl)cc(C(=O)O)c1Cl` the collision cross section [1, 4] was 155.56 Å² and the “reversed-phase LC retention time” value [2, 4] was 4.88 min.

With `Cc1cc(O)cc(C)c1S(C)=O` (stereo not given) [Methiocarb-sulfoxide phenol] the collision cross section [1, 3] was 138.02 Å² and the “reversed-phase LC retention time” value [2, 3] was 8.4 min.

In the case of `O=c1[nH]sc2ccccc12` [1,2-Benzisothiazolinone], the collision cross section [1, 3] is reported as 125.68 Å², the collision cross section [1, 4] is reported as 122.13 Å² and the “reversed-phase LC retention time” value [2, 3] is reported as 8.77 min. For the same compound, the “reversed-phase LC retention time” value [2, 4] was 10.6 min.

In the case of `CCC(=O)[C@@]1(C)[C@H](C)C[C@H]2[C@@H]3CCC4=CC(=O)C=C[C@]4(C)[C@H]3[C@@H](O)C[C@@]21C` [Rimexolone], the collision cross section [1, 3] is reported as 192.28 Å², the collision cross section [1, 4] is reported as 191.62 Å² and the “reversed-phase LC retention time” value [2, 3] is reported as 16 min. The “reversed-phase LC retention time” value [2, 4] was 16.4 min.

With `Cc1cccc(Nc2ccccc2C(=O)O)c1C` [Mefenamic acid] the collision cross section [1, 3] was 154.45 Å², the collision cross section [1, 4] was 159.71 Å² and the “reversed-phase LC retention time” value [2, 3] was 16.3 min. For the same compound, the “reversed-phase LC retention time” value [2, 4] was 13.6 min.

For `CC(C)(C)CC(C)(C)c1cc(-n2nc3ccccc3n2)c(O)c(C(C)(C)c2ccccc2)c1` [UV-928], the collision cross section [1, 3] was 220.23 Å² and the “reversed-phase LC retention time” value [2, 3] was 20.4 min.

With `O=C1NCCN1Cc1ccc(Cl)nc1` [Imidacloprid-urea] the collision cross section [1, 3] was 143.26 Å² and the “reversed-phase LC retention time” value [2, 3] was 8.55 min.

For `CCNc1nc(Cl)nc(NC(C)C)n1` [Atrazine], the collision cross section [1, 3] was 148.84 Å² and the “reversed-phase LC retention time” value [2, 3] was 12.8 min.

With `CCCN(CCOc1c(Cl)cc(Cl)cc1Cl)C(=O)n1ccnc1` [Prochloraz] the collision cross section [1, 3] was 183.61 Å² and the “reversed-phase LC retention time” value [2, 3] was 15.7 min.

In the case of `Cc1cccc(C(=O)O)c1N(Cn1cccn1)C(=O)C(=O)O` [Metazachlor BH479-12], the collision cross section [1, 3] is reported as 160.33 Å² and the “reversed-phase LC retention time” value [2, 3] is reported as 8.13 min.

With `CC(C)(C)c1cc(CCC(=O)NCCCCCCNC(=O)CCc2cc(C(C)(C)C)c(O)c(C(C)(C)C)c2)cc(C(C)(C)C)c1O` the collision cross section [1, 3] was 263.68 Å², the collision cross section [1, 4] was 254.68 Å² and the “reversed-phase LC retention time” value [2, 3] was 17.8 min. The “reversed-phase LC retention time” value [2, 4] was 18.3 min.

With `CC(c1ccc(O)cc1)(c1ccc(O)cc1)c1ccc(O)cc1` [1,1,1-Tris(4-hydroxyphenyl)ethane] the collision cross section [1, 4] was 183.23 Å² and the “reversed-phase LC retention time” value [2, 4] was 12.4 min.

For `COc1ccc(-c2coc3cc(O)ccc3c2=O)cc1` [Formononetin], the collision cross section [1, 3] was 158.9 Å², the collision cross section [1, 4] was 163.97 Å² and the “reversed-phase LC retention time” value [2, 3] was 13.2 min. The “reversed-phase LC retention time” value [2, 4] was 12.2 min.

In the case of `CCc1cccc(C)c1N(C(=O)CS(=O)(=O)O)[C@@H](C)C(=O)O`, the collision cross section [1, 4] is reported as 167.47 Å² and the “reversed-phase LC retention time” value [2, 4] is reported as 8.5 min.

With `OC(Cc1ccccc1Cl)(Cn1cncn1)C1(Cl)CC1` (stereo not given) [Prothioconazole-desthio] the collision cross section [1, 3] was 168.06 Å² and the “reversed-phase LC retention time” value [2, 3] was 14.9 min.

With `O=S(=O)(O)c1nc2ccccc2s1` [2-Benzothiazolesulfonic acid] the collision cross section [1, 3] was 141.34 Å², the collision cross section [1, 4] was 139.34 Å² and the “reversed-phase LC retention time” value [2, 3] was 7.62 min. The “reversed-phase LC retention time” value [2, 4] was 7.26 min.

With `C/C=C/C(=O)N(CC)c1ccccc1C` [Crotamiton] the collision cross section [1, 3] was 144.88 Å² and the “reversed-phase LC retention time” value [2, 3] was 14 min.

With `C=C(C)C(=O)NCCCN(C)C` [N-(3-Dimethylamino)propyl)methacrylamide] the collision cross section [1, 3] was 136.2 Å² and the “reversed-phase LC retention time” value [2, 3] was 3.22 min.

For `COC[P+](c1ccccc1)(c1ccccc1)c1ccccc1` [(Methoxymethyl)triphenylphosphonium], the collision cross section [1, 5] was 170.42 Å² and the “reversed-phase LC retention time” value [2, 5] was 10.6 min.

With `O=C(Nc1ccccc1)c1ccccc1SSc1ccccc1C(=O)Nc1ccccc1` [2,2'-Dithiobisbenzanilide] the collision cross section [1, 3] was 195.49 Å² and the “reversed-phase LC retention time” value [2, 3] was 16.2 min.

For `COC(=O)CCc1cc(C(C)(C)C)c(O)c(C(C)(C)C)c1` [Methyl 3-(3,5-di-tert-butyl-4-hydroxyphenyl)propionate], the collision cross section [1, 4] was 179.88 Å² and the “reversed-phase LC retention time” value [2, 4] was 17.3 min.

With `CN(C)CC(c1ccc(O)cc1)C1(O)CCCCC1` (stereo not given) [Venlafaxine-O-desmethyl] the collision cross section [1, 3] was 166.78 Å², the collision cross section [1, 4] was 172.85 Å² and the “reversed-phase LC retention time” value [2, 3] was 8.96 min. The “reversed-phase LC retention time” value [2, 4] was 11.3 min.

With `CC(Cc1ccc(C(C)(C)C)cc1)CN1C[C@@H](C)O[C@@H](C)C1` (stereo not given in full) [Fenpropimorph] the collision cross section [1, 3] was 174.32 Å² and the “reversed-phase LC retention time” value [2, 3] was 13.8 min.

With `CO/N=C(/C(=O)OC)c1ccccc1CO/N=C(\C)c1cccc(C(F)(F)F)c1` [Trifloxystrobin] the collision cross section [1, 3] was 188.81 Å² and the “reversed-phase LC retention time” value [2, 3] was 16.3 min.

For `COc1nc(C)nc(NC(=O)NS(=O)(=O)c2ccccc2CCC(F)(F)F)n1` [Prosulfuron], the collision cross section [1, 3] was 188.2 Å², the collision cross section [1, 4] was 189.48 Å² and the “reversed-phase LC retention time” value [2, 3] was 13.9 min. For the same compound, the “reversed-phase LC retention time” value [2, 4] was 11.9 min.

For `C[N+](C)(C)CC1CO1` (stereo not given) [2,3-Epoxypropyltrimethylammonium], the collision cross section [1, 5] was 117.85 Å² and the “reversed-phase LC retention time” value [2, 5] was 0.95 min.

With `O=[N+]([O-])c1ccc(O)c([N+](=O)[O-])c1` [2,4-Dinitrophenol] the collision cross section [1, 4] was 125.27 Å² and the “reversed-phase LC retention time” value [2, 4] was 6.09 min.

With `CCC(=NOC/C=C/Cl)C1=C(O)CC(C2CCOCC2)CC1=O` (stereo not given) [Tepraloxydim (two peaks)] the collision cross section [1, 3] was 186.68 Å², the collision cross section [1, 4] was 181.89 Å² and the “reversed-phase LC retention time” value [2, 3] was 14.7 min. For the same compound, the “reversed-phase LC retention time” value [2, 4] was 9.17 min.

With `O=C1NC(=O)C2CC=CCC12` (stereo not given) [Tetrahydrophthalimide] the collision cross section [1, 3] was 130.01 Å² and the “reversed-phase LC retention time” value [2, 3] was 5.38 min.

In the case of `O=C1Cc2cc(CCN3CCN(c4nsc5ccccc45)CC3)c(Cl)cc2N1` [Ziprasidone], the collision cross section [1, 3] is reported as 192.95 Å² and the “reversed-phase LC retention time” value [2, 3] is reported as 11.2 min.

With `CC(C)(C)c1cc([N+](=O)[O-])cc([N+](=O)[O-])c1O` [Dinoterb] the collision cross section [1, 4] was 149.2 Å² and the “reversed-phase LC retention time” value [2, 4] was 12.5 min.

In the case of `CC(C(=O)O)c1cccc(C(=O)c2ccccc2)c1` (stereo not given) [Ketoprofen], the collision cross section [1, 3] is reported as 158.88 Å² and the “reversed-phase LC retention time” value [2, 3] is reported as 13.5 min.

In the case of `OC(Cn1cncn1)(c1ccc(F)cc1)c1ccccc1F` (stereo not given) [Flutriafol], the collision cross section [1, 3] is reported as 167.74 Å² and the “reversed-phase LC retention time” value [2, 3] is reported as 12.9 min.

Reference: the supplement of paper PMC12613149
